Results reported in PubChem BioAssay AID248 (DTP/NCI, 2004).
Inconclusive results and toxic doses are left out. Rule as the data show it: active = T/C of 150% or more; inactive = T/C below 125%.

Test system: L1210 leukemia ip in BDF1 mice, survival T/C
Experiment: NCI In Vivo Anticancer Drug Screen. Data for tumor model L1210 Leukemia (intraperitoneal) in B6D2F1 (BDF1) mice
Conditions: endpoint: mean survival time, higher = longer survival
Method in brief: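 Antitumor effect is assessed in tumor-bearing animals. Survival in the compound arm is compared with a vehicle-dosed control arm and expressed as their quotient.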

[1] = dose: 100.0 mg/kg/injection, schedule: Q01DX009 (ip), vehicle: Klucel (hydroxypropylcellulose) (HPC)
[2] = dose: 200.0 mg/kg/injection, schedule: Q01DX009 (ip), vehicle: Klucel (hydroxypropylcellulose) (HPC)
[3] = dose: 100.0 mg/kg/injection, schedule: Q01DX001 (ip), vehicle: saline
[4] = dose: 200.0 mg/kg/injection, schedule: Q01DX001 (ip), vehicle: saline
[5] = dose: 400.0 mg/kg/injection, schedule: Q01DX001 (ip), vehicle: saline
[6] = dose: 100.0 mg/kg/injection, schedule: Q04DX002 (ip), vehicle: saline
[7] = dose: 200.0 mg/kg/injection, schedule: Q04DX002 (ip), vehicle: saline
[8] = dose: 400.0 mg/kg/injection, schedule: Q04DX002 (ip), vehicle: saline
[9] = dose: 50.0 mg/kg/injection, schedule: Q01DX001 (ip), vehicle: saline
[10] = dose: 400.0 mg/kg/injection, schedule: Q04DX002 (ip), vehicle: saline with Tween-80

Measured: T/C

Nc1nc(N)c2nc(COc3ccccc3)cnc2n1
inactive: dose: 20.0 mg/kg/injection, schedule: Q01DX009 (ip), vehicle: Klucel (hydroxypropylcellulose) (HPC) 98 % of control | dose: 40.0 mg/kg/injection, schedule: Q01DX009 (ip), vehicle: Klucel (hydroxypropylcellulose) (HPC) 107 % of control | dose: 80.0 mg/kg/injection, schedule: Q01DX009 (ip), vehicle: Klucel (hydroxypropylcellulose) (HPC) 107 % of control

O=C(Cc1ccccc1)CC(O)(C(F)(F)F)C(F)(F)F
inactive: dose: 100.0 mg/kg/injection, schedule: Q01DX009 (ip), vehicle: saline with Tween-80 110 % of control | dose: 200.0 mg/kg/injection, schedule: Q01DX009 (ip), vehicle: saline with Tween-80 100 % of control

Cc1cc(/C=N/NC(=O)c2ccccc2NC(=O)c2ccccc2Cl)ccc1O
inactive: [1] 88 % of control | [2] 92 % of control | dose: 400.0 mg/kg/injection, schedule: Q01DX009 (ip), vehicle: Klucel (hydroxypropylcellulose) (HPC) 86 % of control

Cc1ccc(C(OC(=O)c2ccccc2)c2nccc3ccccc23)cc1 (stereo not given)
inactive: [3] 86 % of control | [4] 98 % of control | [5] 98 % of control

CCCCCC(CN(C)C)C(=O)/C=C/c1ccccc1 (stereo not given)
inactive: dose: 50.0 mg/kg/injection, schedule: Q01DX009 (sc), vehicle: other 95 % of control | dose: 100.0 mg/kg/injection, schedule: Q01DX001 (sc), vehicle: steriod suspending solution 93 % of control | dose: 100.0 mg/kg/injection, schedule: Q01DX009 (sc), vehicle: other 102 % of control | dose: 100.0 mg/kg/injection, schedule: Q04DX003 (sc), vehicle: other 101 % of control | dose: 200.0 mg/kg/injection, schedule: Q01DX001 (sc), vehicle: steriod suspending solution 93 % of control | dose: 200.0 mg/kg/injection, schedule: Q04DX003 (sc), vehicle: other 90 % of control | dose: 400.0 mg/kg/injection, schedule: Q01DX001 (sc), vehicle: steriod suspending solution 100 % of control

COc1cc([N+](=O)[O-])c(C=O)cc1O
inactive: dose: 100.0 mg/kg/injection, schedule: Q01DX009 (ip), vehicle: acetone 97 % of control | dose: 200.0 mg/kg/injection, schedule: Q01DX009 (ip), vehicle: acetone 100 % of control | dose: 400.0 mg/kg/injection, schedule: Q01DX009 (ip), vehicle: acetone 100 % of control

CCCC#CCOCC1CO1 (stereo not given)
inactive: dose: 100.0 mg/kg/injection, schedule: Q01DX009 (ip), vehicle: saline 93 % of control | dose: 100.0 mg/kg/injection, schedule: Q04DX003 (ip), vehicle: saline sonified 98 % of control | dose: 200.0 mg/kg/injection, schedule: Q01DX009 (ip), vehicle: saline 89 % of control | dose: 200.0 mg/kg/injection, schedule: Q04DX003 (ip), vehicle: saline sonified 109 % of control | dose: 400.0 mg/kg/injection, schedule: Q01DX009 (ip), vehicle: saline 91 % of control | dose: 400.0 mg/kg/injection, schedule: Q04DX003 (ip), vehicle: saline sonified 104 % of control

[O-][n+]1ccccc1CCO
inactive: [6] 98 % of control | [7] 106 % of control | [8] 92 % of control

C1CN2CCC1C1(C2)SSC2(CN3CCC2CC3)S1 (stereo not given)
inactive: dose: 6.25 mg/kg/injection, schedule: Q01DX009 (ip), vehicle: saline 107 % of control | dose: 6.25 mg/kg/injection, schedule: Q04DX003 (ip), vehicle: saline 96 % of control | dose: 12.5 mg/kg/injection, schedule: Q01DX009 (ip), vehicle: saline 96 % of control | dose: 12.5 mg/kg/injection, schedule: Q04DX003 (ip), vehicle: saline 107 % of control | dose: 25.0 mg/kg/injection, schedule: Q01DX009 (ip), vehicle: saline 119 % of control | dose: 25.0 mg/kg/injection, schedule: Q04DX003 (ip), vehicle: saline 94 % of control

Nc1nc(CO)c(CCCCc2ccccc2)c(=O)[nH]1
inactive: [9] 101 % of control | [3] 101 % of control | [4] 98 % of control | [5] 101 % of control

O=C(CNC(=O)c1ccc(Cl)cc1Cl)N/N=C/c1cccc([N+](=O)[O-])c1
inactive: dose: 12.5 mg/kg/injection, schedule: Q01DX009 (ip), vehicle: saline with Tween-80 96 % of control | dose: 50.0 mg/kg/injection, schedule: Q01DX009 (ip), vehicle: saline with Tween-80 89 % of control

COc1ccc(C(N)=O)c(C)c1OC
inactive: [9] 98 % of control | [3] 95 % of control | [4] 95 % of control | [5] 95 % of control

CC1CC(C)OP(Oc2ccccc2)O1 (stereo not given)
inactive: [3] 110 % of control | [4] 96 % of control | [5] 98 % of control

Cc1ccc(C(=O)Oc2ccc(Cl)c(C)c2Cl)cc1
inactive: dose: 75.0 mg/kg/injection, schedule: Q01DX001 (ip), vehicle: carboxymethylcellulose (CMC) 91 % of control | dose: 150.0 mg/kg/injection, schedule: Q01DX001 (ip), vehicle: carboxymethylcellulose (CMC) 92 % of control | dose: 300.0 mg/kg/injection, schedule: Q01DX001 (ip), vehicle: carboxymethylcellulose (CMC) 92 % of control

COc1ccc(/C=N/N=C(N)N)cc1S(=O)(=O)O
inactive: dose: 15.0 mg/kg/injection, schedule: Q01DX Z (ip), vehicle: saline 95 % of control | dose: 30.0 mg/kg/injection, schedule: Q01DX Z (ip), vehicle: saline 90 % of control | dose: 60.0 mg/kg/injection, schedule: Q01DX Z (ip), vehicle: saline 88 % of control | dose: 60.0 mg/kg/injection, schedule: Q01DX Z (oral), vehicle: saline 95 % of control | dose: 120.0 mg/kg/injection, schedule: Q01DX Z (ip), vehicle: saline 92 % of control | dose: 120.0 mg/kg/injection, schedule: Q01DX Z (oral), vehicle: saline 97 % of control | dose: 240.0 mg/kg/injection, schedule: Q01DX Z (oral), vehicle: saline 97 % of control | dose: 480.0 mg/kg/injection, schedule: Q01DX Z (oral), vehicle: saline 98 % of control

CC(C)(C)C(=O)/C=C/c1ccc(Cl)cc1
inactive: dose: 100.0 mg/kg/injection, schedule: Q04DX002 (ip), vehicle: gum acacia 93 % of control | dose: 200.0 mg/kg/injection, schedule: Q04DX002 (ip), vehicle: gum acacia 97 % of control | dose: 400.0 mg/kg/injection, schedule: Q04DX002 (ip), vehicle: gum acacia 104 % of control

CCCCCCC#CC(=O)OCCCCC
inactive: dose: 100.0 mg/kg/injection, schedule: Q04DX002 (ip), vehicle: saline with Tween-80 96 % of control | dose: 200.0 mg/kg/injection, schedule: Q04DX002 (ip), vehicle: saline with Tween-80 100 % of control | [10] 96 % of control

CC(=O)OC1=COc2c(Cl)ccc3cccc1c23
inactive: dose: 100.0 mg/kg/injection, schedule: Q01DX001 (ip), vehicle: Klucel (hydroxypropylcellulose) (HPC) 103 % of control | dose: 200.0 mg/kg/injection, schedule: Q01DX001 (ip), vehicle: Klucel (hydroxypropylcellulose) (HPC) 109 % of control | dose: 400.0 mg/kg/injection, schedule: Q01DX001 (ip), vehicle: Klucel (hydroxypropylcellulose) (HPC) 97 % of control

CC1(C)CC(C)(c2ccccc2)c2ccccc21 (stereo not given)
inactive: dose: 50.0 mg/kg/injection, schedule: Q01DX009 (ip), vehicle: Klucel (hydroxypropylcellulose) (HPC) 101 % of control | dose: 75.0 mg/kg/injection, schedule: Q04DX003 (ip), vehicle: Klucel (hydroxypropylcellulose) (HPC) 104 % of control | [1] 95 % of control | dose: 150.0 mg/kg/injection, schedule: Q04DX003 (ip), vehicle: Klucel (hydroxypropylcellulose) (HPC) 102 % of control | [2] 95 % of control | dose: 300.0 mg/kg/injection, schedule: Q04DX003 (ip), vehicle: Klucel (hydroxypropylcellulose) (HPC) 102 % of control

CCCCCCCCC(CCCCCCCC)CC1CCC2CCCC21 (stereo not given)
inactive: dose: 75.0 mg/kg/injection, schedule: Q01DX001 (ip), vehicle: saline with Tween-80 93 % of control | dose: 150.0 mg/kg/injection, schedule: Q01DX001 (ip), vehicle: saline with Tween-80 90 % of control | dose: 300.0 mg/kg/injection, schedule: Q01DX001 (ip), vehicle: saline with Tween-80 90 % of control

COC(=O)CC(CC(=O)OC)c1ccc(OC)c([N+](=O)[O-])c1
inactive: dose: 25.6 mg/kg/injection, schedule: Q04DX002 (ip), vehicle: saline with Tween-80 101 % of control | dose: 64.0 mg/kg/injection, schedule: Q04DX002 (ip), vehicle: saline with Tween-80 101 % of control | dose: 160.0 mg/kg/injection, schedule: Q04DX002 (ip), vehicle: saline with Tween-80 97 % of control | [10] 93 % of control

CN(C)CCS(=O)(=O)c1ccc(Cl)cc1
inactive: [6] 102 % of control | [7] 109 % of control | [8] 98 % of control
